{"source": "paper PMC5450916", "about": "(Biochemistry, 2010)", "key": {"[1]": {"target": "T1, human indoleamine 2,3-dioxygenase (hIDO) (Homo sapiens, UniProt P14902)", "T1 sequence (P14902 whole entry)": "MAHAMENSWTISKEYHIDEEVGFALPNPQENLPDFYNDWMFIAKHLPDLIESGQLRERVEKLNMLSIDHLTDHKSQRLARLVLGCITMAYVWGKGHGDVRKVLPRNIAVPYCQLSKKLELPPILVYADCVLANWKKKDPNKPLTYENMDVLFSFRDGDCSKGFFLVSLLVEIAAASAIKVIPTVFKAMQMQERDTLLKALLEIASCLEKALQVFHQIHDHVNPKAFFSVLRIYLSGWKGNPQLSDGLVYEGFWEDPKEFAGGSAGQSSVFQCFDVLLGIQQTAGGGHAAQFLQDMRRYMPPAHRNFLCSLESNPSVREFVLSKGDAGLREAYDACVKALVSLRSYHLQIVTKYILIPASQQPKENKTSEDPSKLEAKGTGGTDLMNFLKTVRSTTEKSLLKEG", "assay": "Stopped-flow binding kinetics"}, "TDO (xcTDO) [2]": {"test_system": "TDO (xcTDO)", "conditions": "cited from earlier work"}, "[3]": {"target": "T1, human indoleamine 2,3-dioxygenase (hIDO)", "conditions": "L-Trp binding to ferric hIDO; cited from earlier work"}, "[4]": {"target": "T1, human indoleamine 2,3-dioxygenase (hIDO)", "conditions": "cited from earlier work"}, "[5]": {"target": "T1, human indoleamine 2,3-dioxygenase (hIDO)", "assay": "Equilibrium ligand/substrate titration by optical absorption", "assay_type": "binding", "conditions": "ferrous hIDO at 50 μM L-Trp, on the basis of Kd 400 μM"}, "[6]": {"test_system": "rabbit indoleamine 2,3-dioxygenase (rIDO)", "conditions": "cited from earlier work"}, "[7]": {"target": "T1, human indoleamine 2,3-dioxygenase (hIDO)", "assay": "Steady-state kinetics of hIDO", "assay_type": "biochemical"}, "[8]": {"target": "rabbit indoleamine 2,3-dioxygenase (rIDO)", "conditions": "read-out: Kd^eq, cited from earlier work"}, "TDO (xcTDO) [9]": {"target": "TDO (xcTDO)", "conditions": "read-out: Kd^eq, cited from earlier work"}}, "note": "“And” between values parts separate entries of the source, which are not always exact repeats. Identical values can stand only once. Like-named read-outs stand apart in the source and are kept apart here."}
{"molecule": "N[C@@H](Cc1c[nH]c2ccccc12)C(=O)O", "note": "[L-Trp, L-Tryptophan]", "values": [{"measurement": "Kd", "setting": "[1]; Fe^3+ + Trp, calculated from kinetic constants", "value": 1000, "unit": "µM"}, {"measurement": "Kd", "setting": "[1]; Fe^3+–CN^− + Trp, calculated from koff/kon", "value": 23, "unit": "µM"}, {"measurement": "binding of L-Trp to the second binding site", "setting": "[1]; cyanide-bound ferric hIDO, higher L-Trp concentrations, stopped-flow", "value": "too fast to be measured"}, {"measurement": "ΔΔG of L-Trp binding", "setting": "[1]; effect of prebinding of cyanide, tighter substrate binding", "value": -2.3, "unit": "kcal/mol"}, {"measurement": "retardation of L-Trp dissociation by prebinding of cyanide", "setting": "[1]; koff, cyanide-bound vs ligand-free ferric hIDO", "value": 2, "unit": "fold"}, {"measurement": "facilitation of L-Trp binding by prebinding of cyanide", "setting": "[1]; kon, cyanide-bound vs ligand-free ferric hIDO", "value": "~ 22 fold and 22 fold"}, {"measurement": "observed rate constant", "setting": "[1]; ligand-free ferric hIDO with 0.75 mM L-Trp, trace at 403 nm, 20 °C", "value": 10, "unit": "s⁻¹"}, {"measurement": "Km", "setting": "TDO (xcTDO) [2]", "value": 114, "unit": "µM"}, {"measurement": "kon, previously published", "setting": "[3]", "value": "1.55e+10", "unit": "M⁻¹ s⁻¹"}, {"measurement": "self-inhibition (substrate inhibition) constant Ksi", "setting": "[4]; hIDO steady-state turnover", "value": 0.17, "unit": "mM"}, {"measurement": "Km", "setting": "[4]; read-out: Km of L-Trp, hIDO steady-state reactions", "value": "15 ± 2", "unit": "µM"}, {"measurement": "enzyme in the substrate-bound form", "setting": "[5]", "value": "~ 5%"}, {"measurement": "Km", "setting": "[6]", "value": 12, "unit": "µM"}, {"measurement": "Km of L-Trp lower than Kd of L-Trp", "setting": "[7]; Km (15 μM) vs Kd (0.4 mM) of ligand-free ferrous hIDO", "value": "~ 27 fold and 27 fold"}, {"measurement": "Km lower than Kd (L-Trp)", "setting": "[7]; Km (~15 μM) vs literature Kd (0.53 mM) of ligand-free hIDO", "value": "~ 40 fold"}, {"measurement": "Kd", "setting": "[8]; rIDO Fe^2+ + Trp", "value": 13, "unit": "µM"}, {"measurement": "Kd", "setting": "[8]; rIDO Fe^3+ + Trp, ref 16", "value": 5800, "unit": "µM"}, {"measurement": "Kd", "setting": "[8]; rIDO Fe^3+ + Trp, ref 35", "value": 30000, "unit": "µM"}, {"measurement": "Kd", "setting": "[8]; rIDO Fe^3+–CN^− + Trp, ref 34", "value": "10 to 20", "unit": "µM"}, {"measurement": "Kd", "setting": "[8]; rIDO Fe^3+–CN^− + Trp, ref 35", "value": 16, "unit": "µM"}, {"measurement": "Kd", "setting": "TDO (xcTDO) [9]; TDO Fe^2+ + Trp", "value": 4.12, "unit": "µM"}, {"measurement": "Kd", "setting": "TDO (xcTDO) [9]; TDO Fe^3+ + Trp", "value": 3800, "unit": "µM"}]}
